Data from patent US20240376094A2, “SELECTIVE BCL-XL PROTAC COMPOUNDS AND METHODS OF USE” (Les Laboratoires Servier, priority 2021, published 2024).
Where two headings read alike, the source gives them in different places.

How the values were obtained:
[1] = tested on: EBC-1 lung cancer cell line; assay: EBC-1 cell proliferation, CellTiter-Glo assay; type: cell-based; details: Ebc-1 cell viability, CTG assay, 5 days of treatment, read-out: CTG 5 day Ebc1 GI50
Protocol: (§1) The ability of the BCL-xL degrader low molecular weight compounds to inhibit cell proliferation and survival was assessed using the Promega CellTiter-Glo® proliferation assay on the EBC-1 lung cancer cell line (RCB1965, obtained from RIKEN.) The cells were cultured in media that is optimal for their growth at 5% CO2, 37° C. in a tissue culture incubator. Prior to seeding for the proliferation assay, the cells were split at least 2 days before the assay to ensure optimal growth density. On the day of seeding, cells were lifted off tissue culture flasks using 0.25% trypsin. Cell viability and cell density were determined using a cell counter (Vi-Cell XR Cell Viability Analyzer, Beckman Coulter). Cells with higher than 85% viability were seeded in white clear bottom 384-well plates (Greiner cat #781098) at a density of 1000 cells per well in 50 μL of standard growth media. Plates were incubated at 37° C. overnight in a tissue culture incubator.
The BCL-xL degrader low molecular weight compounds were prepared to desired concentrations. A series of 10 dilutions were made for each prepared compound. The prepared compounds were then added to the cells resulting in final concentrations of 0.508 nM-10 μM. An acoustic transfer device (Echo555, Beckman Coulter) was used to add the compounds to the cells. Each treatment was tested in triplicate assay plates. Plates were incubated at 37° C. overnight or for 5 days in a tissue culture incubator. The ability of the compounds to inhibit cell proliferation and survival was assessed using the Promega CellTiter-Glo® proliferation assay. Plates were incubated at room temperature for 20 minutes to stabilize luminescent signals prior to reading using a multimode plate reader (PHERAstar FSX Microplate Reader, BMG Labtech).
To evaluate the effect of the compound treatments, luminescent counts of untreated cells were taken the day after seeding (Day 0 readings), and after 5 days of treatment (Day 5 readings). The Day 5 readings of the untreated cells were compared to the Day 0 readings. Assays with at least one cell doubling during the incubation period were considered valid. To evaluate the effect of the drug treatments, luminescent counts from wells containing untreated cells (100% viability) were used to normalize treated samples. The concentrations of treatment required to inhibit 50% of cell growth or survival ([…]) were calculated using a four parameter logistic regression equation.

HiBiT-tagged BCL-xL = molecular target: T1, HiBiT-tagged BCL-xL (Homo sapiens, UniProt Q07817); assay: NCI-H1650 BCL-xL protein levels, Nano-Glo HiBiT Lytic Detection; type: cell-based; details: NCI-H1650 expressing HiBiT-tagged BCL-xL, overnight incubation, read-out: Bcl-xl HIBIT NCIH1650 DC50
T1 construct: expressed in transfected cells; host or cells: NCI-H1650 (ATCC No. CRL-5883), engineered HiBiT cell line
Protocol: as §1, with “degrade BCL-xL protein” for “inhibit cell proliferation and survival”, “Nano-Glo® HiBiT Lytic Detection System. The NCI-H1650 (ATCC No. CRL-5883) was engineered to express HiBiT-tagged BCL-xL. The NCI-H1650 HiBiT” for “CellTiter-Glo® proliferation assay on the EBC-1 lung cancer”, “was” for “(RCB1965, obtained from RIKEN.) The cells were”, “protein level” for “proliferation”, “5000” for “1000”, “30” for “50”
The BCL-xL degrader low molecular weight compounds were prepared to desired concentrations. A series of 10 dilutions were made for each prepared compound. The prepared compounds were then added to the cells resulting in final concentrations of 0.508 nM-10 μM. An acoustic transfer device (Echo555, Beckman Coulter) was used to add the compounds to the cells. Each treatment was tested in triplicate assay plates. Plates were incubated at 37° C. overnight in a tissue culture incubator.
BCL-xL degradation was assessed through the addition of 30 μL of Nano-Glo® HiBiT Lytic Reagent (Promega, cat #N3040), a reagent which lyses cells and contains a furimazine substrate and the large subunit (LgBiT) used in NanoLuc® Binary Technology. The LgBiT subunit having high affinity to a HiBiT-tagged protein will bind HiBiT, if present, resulting in complex formation of a luminescent NanoBiT® enzyme. This reaction will emit a luminescent signal proportional to the amount of HiBiT-tagged BCL-xL present in the cell lysate. Plates were incubated at room temperature for 20 minutes to stabilize luminescent signals prior to reading using a luminescence reader (PHERAstar FSX Microplate Reader, BMG Labtech).
To evaluate the effect of the drug treatments, luminescent counts from wells containing untreated cells (100% HiBiT-tagged BCL-xL) were used to normalize treated samples. The concentrations of treatment required to inhibit 50% were calculated using a four parameter logistic regression equation.

T1 sequence (Q07817 whole entry): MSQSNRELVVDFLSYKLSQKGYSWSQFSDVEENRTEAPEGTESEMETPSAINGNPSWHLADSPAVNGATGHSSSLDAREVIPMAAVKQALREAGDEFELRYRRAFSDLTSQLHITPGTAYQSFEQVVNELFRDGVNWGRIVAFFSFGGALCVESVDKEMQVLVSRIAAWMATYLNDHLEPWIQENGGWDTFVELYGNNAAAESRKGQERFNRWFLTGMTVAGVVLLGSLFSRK

GI50 ([1]; Homo sapiens, 120 h) [nM] | DC50 (HiBiT-tagged BCL-xL) [nM] | Compound | GI50 [1] [nM]
462 | 33 | Cc1cc(N(CCCCN(C)C(=O)CCCCCCCCCCCCSC(C)(C)[C@H](NC(=O)C2(F)CC2)C(=O)N2C[C@H](O)C[C@H]2C(=O)NCc2ccc(-c3scnc3C)cc2)c2ccc(-c3cnn(CC45CC6(C)CC(C)(C4)CC(OCCN(C)C)(C6)C5)c3C)c(C(=O)O)n2)nnc1Nc1nc2ccccc2s1 [Example 127, 6-[[6-(1,3-benzothiazol-2-ylamino)-5-methyl-pyridazin-3-yl]-[4-[13-[(2R)-2-[(1-fluorocyclopropanecarbonyl)amino]-3-[(2S,4R)-4-hydroxy-2-[[4-(4-methylthiazol-5-yl)phenyl]methylcarbamoyl]pyrrolidin-1-yl]-1,1-dimethyl-3-oxo-propyl]sulfanyltridecanoyl-methyl-amino]butyl]amino]-3-[1-[[3-[2-(dimethylamino)ethoxy]-5,7-dimethyl-1-adamantyl]methyl]-5-methyl-pyrazol-4-yl]pyridine-2-carboxylic acid] | 
8 | > 1670 | Cc1ncsc1-c1ccc([C@H](C)NC(=O)[C@@H]2C[C@@H](O)CN2C(=O)[C@@H](NC(=O)CCOCCOCCOCCNC(=O)c2nc(N3CCCc4c3nnc(Nc3nc5ccccc5s3)c4C)ccc2-c2cnn(CC34CC5(C)CC(C)(C3)CC(OCCN3CCCC3)(C5)C4)c2C)C(C)(C)C)cc1 [Example 159, 6-(3-(benzo[d]thiazol-2-ylamino)-4-methyl-6,7-dihydropyrido[2,3-c]pyridazin-8(5H)-yl)-3-(1-(((1r,3R,5S,7s)-3,5-dimethyl-7-(2-(pyrrolidin-1-yl)ethoxy)adamantan-1-yl)methyl)-5-methyl-1H-pyrazol-4-yl)-N—((S)-14-((2S,4R)-4-hydroxy-2-(((S)-1-(4-(4-methylthiazol-5-yl)phenyl)ethyl)carbamoyl)pyrrolidine-1-carbonyl)-15,15-dimethyl-12-oxo-3,6,9-trioxa-13-azahexadecyl)picolinamide] | 
58 | 2 | Cc1ncsc1-c1ccc([C@H](C)NC(=O)[C@@H]2C[C@@H](O)CN2C(=O)[C@@H](NC(=O)CCOCCOCCOCCN(C)C(=O)c2nc(N3CCCc4c3nnc(Nc3nc5ccccc5s3)c4C)ccc2-c2cnn(CC34CC5(C)CC(C)(C3)CC(OCCN3CCCC3)(C5)C4)c2C)C(C)(C)C)cc1 [Example 160, 6-(3-(benzo[d]thiazol-2-ylamino)-4-methyl-6,7-dihydropyrido[2,3-c]pyridazin-8(5H)-yl)-3-(1-(((1r,3R,5S,7s)-3,5-dimethyl-7-(2-(pyrrolidin-1-yl)ethoxy)adamantan-1-yl)methyl)-5-methyl-1H-pyrazol-4-yl)-N—((S)-14-((2S,4R)-4-hydroxy-2-(((S)-1-(4-(4-methylthiazol-5-yl)phenyl)ethyl)carbamoyl)pyrrolidine-1-carbonyl)-15,15-dimethyl-12-oxo-3,6,9-trioxa-13-azahexadecyl)-N-methylpicolinamide] | 

Compound | GI50 ([1]; Homo sapiens, 120 h) [nM] | DC50 (HiBiT-tagged BCL-xL) [nM] | GI50 [1] [nM]
Cc1ncsc1-c1ccc([C@H](C)NC(=O)[C@@H]2C[C@@H](O)CN2C(=O)[C@@H](NC(=O)CCOCCOCCNC(=O)c2nc(N3CCCc4c3nnc(Nc3nc5ccccc5s3)c4C)ccc2-c2cnn(CC34CC5(OCCN6CCCC6)C[C@](C)(C3)C[C@](C)(C4)C5)c2C)C(C)(C)C)cc1 [Example 158, 6-(3-(benzo[d]thiazol-2-ylamino)-4-methyl-6,7-dihydropyrido[2,3-c]pyridazin-8(5H)-yl)-3-(1-(((1r,3R,5S,7s)-3,5-dimethyl-7-(2-(pyrrolidin-1-yl)ethoxy)adamantan-1-yl)methyl)-5-methyl-1H-pyrazol-4-yl)-N-(2-(2-(3-(((S)-1-((2S,4R)-4-hydroxy-2-(((S)-1-(4-(4-methylthiazol-5-yl)phenyl)ethyl)carbamoyl)pyrrolidin-1-yl)-3,3-dimethyl-1-oxobutan-2-yl)amino)-3-oxopropoxy)ethoxy)ethyl)picolinamide] |  | > 1670 | 10
